{"source": "patent US6150361A", "about": "“Triazineone compounds for treating diseases due to sarcosystis, neospora and toxoplasma” (Bayer Corporation, priority 1998, dated 2000)", "tested_on": "Toxoplasma gondii", "test": "Microtiter Monolayer Disruption Assay (MMDA), Toxoplasma gondii", "assay_type": "cell-based, Toxoplasma gondii strain RH", "conditions": "BT cells", "description": "In order to determine the scope of protection provided by Ponazuril, in vitro testing was conducted. The following strains of parasites were evaluated for their sensitivity to this compound: Strain SN3 of Sarcocystis neurona; strain SF1 of Sarcocystis falcatula; strain RH of Toxoplasma gondii; and the NC-1 strain of Neospora caninum. […]\nBovine turbinate (BT) cells were used for all in vitro studies. Cells were grown to confluency in 25 cm^2 flasks in RMPI 1640 media supplemented with 10% v/v fetal bovine serum (FBS), 100 Units penicillin (G/mL), […] streptomycin/mL and 5×10^-2 mM 2-mercpatoethanol. After cell confluence was obtained, cells were maintained in the same media with reduced FBS (2% v/v). Cell cultures were incubated at 37 C. in a humidified atmosphere containing 5% carbon dioxide and 95% air.\nFor growth of parasites, BT cell monolayers were infected with parasites and examined with an inverted microscope for the development of lesions (cytopathic effect, \"CPE\") or the presence of many extracellular merozoites. Once lesions were observed, or many extracellular parasites were present, the monolayer was scraped with the tip of a 5 mL pipette and 1 to 3 drops of the merozoite-containing fluid was transferred to two flasks of fresh BT cells. Merozoites of S. neurona and S. falcatula were passaged in this manner every 5 to 10 days while the tachyzoites of T. gondii and N. caninum were passaged every 3 to 4 days.\nThe assay used to determine the effectiveness of Ponazuril was the Microtiter Monolayer Disruption Assay (MMDA). This assay was used to determine if the parasites or compound were toxic for BT cells. Flat bottomed 96-well microtiter plates were inoculated with BT cells and the resulting monolayers were used to determine the effects of Toltrazuril and Ponazuril on merozoite production as measured by CPE (plaque formation). […]"}
{"smiles": "Cc1cc(-n2c(=O)[nH]c(=O)n(C)c2=O)ccc1Oc1ccc(S(=O)(=O)C(F)(F)F)cc1", "note": "[Ponazuril]", "values": [{"measurement": "inhibition at 0.001 µg/mL", "setting": "0.001 μg/mL, read-out: Percent Inhibition of Cell Destruction, 0.001 μg/mL", "value": 11, "unit": "%"}, {"measurement": "inhibition at 0.1 µg/mL", "setting": "0.1 μg/mL, read-out: Percent Inhibition of Cell Destruction, 0.1 μg/mL", "value": 100, "unit": "%"}, {"measurement": "inhibition at 1 µg/mL", "setting": "1.0 μg/mL, read-out: Percent Inhibition of Cell Destruction, 1.0 μg/mL", "value": 100, "unit": "%"}]}
